What was measured:
[1] = cited from earlier work
[2] = test system: human endometrial tissue organ cultures; assay: Proliferative organ culture model (MMP-3 Western blot); format: cell-based
Excerpt: Normal endometrial tissues were acquired just prior to ovulation by biopsy from a donor population (no history of endometriosis) and from women with surgically confirmed endometriosis. Informed consent was obtained prior to biopsy and the use of human tissues was approved by Vanderbilt University's Institutional Review Board and Committee for the Protection of Human Subjects.
Endometrial biopsies were dissected into small cubes (˜1×1 mm^3) and 8-10 pieces of tissue per treatment group were suspended in tissue culture inserts. Organ cultures were maintained a total of 72 hrs at 37° C. in DME/F-12 media with serum supplements. Tissue treatments included 17β-estradiol (E), E plus progesterone (P), or E plus medroxy progesterone acetate (MPA) with and without the JNK inhibitor. Cultures were maintained for 24 hours in E only until the initiation of experimental conditions. JNK inhibitor was used at a concentration of 5 or 15 μM and MPA was used at a concentration of 50, 100 or 250 μM.
Media was collected from organ cultures and secreted proteins quantified using the Coomassie Plus Protein Assay (Pierce) and 20 μg total protein subjected to 10% SDS-PAGE. Proteins were transferred to PVDF membrane and blocked in PBS with 10% non-fat milk and 0.05% Tween-20. […]

[3] = test system: endometriotic lesions from human endometrial tissue; settings: earlier work using this model; positive control; cited from earlier work
endometriotic-like foci = assay: Rat model of experimentally induced endometriosis; format: in vivo; settings: for comparison; data not shown
Excerpt: The control group received the vehicle only.

C#C[C@]1(O)CC[C@H]2[C@@H]3CCC4=Cc5oncc5C[C@]4(C)[C@H]3CC[C@@]21C [Danazol]
patients suffering from pain with improved symptoms [1]: 66-100%

CC(=O)O[C@]1(C(C)=O)CC[C@H]2[C@@H]3C[C@H](C)C4=CC(=O)CC[C@]4(C)[C@H]3CC[C@@]21C [MPA, medroxy progesterone acetate]
sensitivity to MPA treatment ([2]; endometrial cultures from endometriosis patients): failed to regress | sensitivity to MPA treatment ([2]; endometrial cultures from normal volunteers): sensitive

CC(=O)[C@H]1CC[C@H]2[C@@H]3CCC4=CC(=O)CC[C@]4(C)[C@H]3CC[C@]12C [progesterone]
disease progression [3]: prevents disease progression

antide
regression of established endometriotic lesions (endometriotic-like foci): about 85%
